Key:
Experiment in all cases: WST-1 cell viability assay
Calu-1 = details: Calu-1, NRP1-expressing; 0, 1, 2, and 4 μM, 48 hours
H1299 = details: H1299, NRP1-expressing; 0, 1, 2, and 4 μM, 48 hours
H460 = details: H460, expressing no NRP1; 0, 1, 2, and 4 μM, 48 hours
H441 = details: H441, NRP1-expressing; 0, 1, 2, and 4 μM, 48 hours
Calu-3 = details: Calu-3, NRP1-expressing; 0, 1, 2, and 4 μM, 48 hours
HCC44 = details: HCC44, NRP1-expressing; 0, 1, 2, and 4 μM, 48 hours
SK-LU-1 = details: SK-LU-1, NRP1-expressing; 0, 1, 2, and 4 μM, 48 hours
A549 = details: A549, NRP1-expressing; 0, 1, 2, and 4 μM, 48 hours

| Substance | cell growth inhibitory activity (WST-1) (Calu-1) | cell growth inhibitory activity (WST-1) (H1299) | cell growth inhibitory activity (WST-1) (H460) | cell growth inhibitory activity (WST-1) (H441) | cell growth inhibitory activity (WST-1) (Calu-3) | cell growth inhibitory activity (WST-1) (HCC44) | cell growth inhibitory activity (WST-1) (SK-LU-1) | cell growth inhibitory activity (WST-1) (A549) |
| --- | --- | --- | --- | --- | --- | --- | --- | --- |
| Pnm-TPP11: TPP11 peptide fused to C-terminus of Pnm heavy chain by (G4S)3 linker; heavy chain SEQ ID NO: 10, light chain SEQ ID NO: 14 | showed the same inhibitory activity against cell growth | showed cell growth inhibitory activity | showed no effect | showed cell growth inhibitory activity | showed the same inhibitory activity against cell growth | showed the same inhibitory activity against cell growth | showed cell growth inhibitory activity | showed the same inhibitory activity against cell growth |
| Panitumumab [Pnm, reference compound] | showed the same inhibitory activity against cell growth | only Pnm-TPP11 showed cell growth inhibitory activity, unlike Pnm | – | only Pnm-TPP11 showed cell growth inhibitory activity, unlike Pnm | showed the same inhibitory activity against cell growth | showed the same inhibitory activity against cell growth | only Pnm-TPP11 showed cell growth inhibitory activity, unlike Pnm | showed the same inhibitory activity against cell growth |

— patent publication US11548915B2, “Composition for overcoming resistance to EGFR-targeting agent” (Pinetree Therapeutics, Inc., priority 2016, dated 2023)
